Laboratory results from publication PMC3248958 (Bioorganic & medicinal chemistry, 2011).

Target: T1, Human Aromatase (Homo sapiens, UniProt P11511)
T1 sequence (P11511 1-503): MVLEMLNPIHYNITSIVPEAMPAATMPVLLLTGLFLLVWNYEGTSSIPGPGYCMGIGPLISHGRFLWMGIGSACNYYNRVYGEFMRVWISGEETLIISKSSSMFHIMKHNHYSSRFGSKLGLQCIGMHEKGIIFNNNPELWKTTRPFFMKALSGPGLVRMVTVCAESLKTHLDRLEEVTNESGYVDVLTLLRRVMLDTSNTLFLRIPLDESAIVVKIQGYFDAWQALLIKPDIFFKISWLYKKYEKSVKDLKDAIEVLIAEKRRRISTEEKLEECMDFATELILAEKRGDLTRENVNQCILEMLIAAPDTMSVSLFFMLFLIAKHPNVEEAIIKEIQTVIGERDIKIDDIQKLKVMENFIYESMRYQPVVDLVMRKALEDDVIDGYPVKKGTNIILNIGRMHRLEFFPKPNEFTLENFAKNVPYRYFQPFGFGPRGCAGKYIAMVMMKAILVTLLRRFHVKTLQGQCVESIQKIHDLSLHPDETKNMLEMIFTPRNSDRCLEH
Experiment: Aromatase assay
Assay type: biochemical
Conditions: not given

Compound	times higher aromatase inhibitory activity than trans-resveratrol	times more potent than the lead compound 3a as an aromatase inhibitor
c1cncc(-c2nsc(-c3cccnc3)n2)c1 [Compound 3b]	30-125 times	greater than 250 times

Same assay, conditions: relative to trans-resveratrol

Compound	times higher aromatase inhibitory activity than trans-resveratrol
c1cc(-c2nsc(-c3ccncc3)n2)ccn1 [Compound 3c]	30-125 times

Test system: quinone reductase 1 (QR1)
Experiment: Quinone reductase 1
Assay type: cell-based, mouse
Conditions: Hepa 1c1c7 cells; determined for compounds with induction ratios > 2

Compound	QR1 Assay CD (concentration that doubles the activity) [µM]
c1cc(-c2nsc(-c3ccncc3)n2)ccn1 [Compound 3c]	> 50
Cc1ccc(-c2nsc(-c3ccc(C)cc3Br)n2)c(Br)c1 [Compound 3dd, 3,5-Bis(2-bromo-4-methylphenyl)-1,2,4-thiadiazole]	> 50
O=[N+]([O-])c1ccc(-c2nsc(-c3ccc([N+](=O)[O-])cc3)n2)cc1 [Compound 3ff]	> 50
COc1ccc(-c2nsc(-c3ccc(OC)cc3)n2)cc1 [Compound 3g]	> 50
N#Cc1ccc(-c2nsc(-c3ccc(C#N)cc3)n2)cc1 [Compound 3gg, 4,4′-(1,2,4-Thiadiazole-3,5-diyl)dibenzonitrile]	> 50
N#Cc1cccc(-c2nsc(-c3cccc(C#N)c3)n2)c1 [Compound 3hh, 3,3′-(1,2,4-Thiadiazole-3,5-diyl)dibenzonitrile]	> 50
Oc1ccc(-c2nsc(-c3ccc(O)cc3)n2)cc1 [Compound 3jj]	> 50
Ic1ccc(-c2nsc(-c3ccc(I)cc3)n2)cc1 [Compound 3l, 3,5-Bis(4-iodophenyl)-1,2,4-thiadiazole]	> 50
Nc1ccc(-c2nsc(-c3ccc(N)cc3)n2)cc1 [Compound 3ll, 3,5-Bis(4-aminophenyl)-1,2,4-thiadiazole]	> 50
Clc1ccc(-c2nsc(-c3ccc(Cl)c(Cl)c3)n2)cc1Cl [Compound 3v, 3,5-Bis(3,4-dichlorophenyl)-1,2,4-thiadiazole]	> 50
Cc1ccc(-c2nsc(-c3ccc(C)cc3)n2)cc1 [Compound 3x, 3,5-Di-p-tolyl-1,2,4-thiadiazole]	> 50
CCCCc1ccc(-c2nsc(-c3ccc(CCCC)cc3)n2)cc1 [Compound 3z, 3,5-Bis(4-butylphenyl)-1,2,4-thiadiazole]	> 50
Oc1ccc(CCc2cc(O)cc(O)c2)cc1 [dihydroresveratrol, reference compound]	> 50

Same assay, conditions: Hepa 1c1c7 cells; positive control

Compound	QR1 Assay CD of positive control [M]
O=c1cc(-c2ccc(Br)cc2)oc2ccccc12 [4'-Bromoflavone, reference compound]	0.01

Test system: not given
Experiment: not given
Conditions: tested at 400 μM of each compound

Compound	DPPH assay % inhibition [%]
c1cncc(-c2nsc(-c3cccnc3)n2)c1 [Compound 3b]	-16.1±1.1
c1cc(-c2nsc(-c3ccncc3)n2)ccn1 [Compound 3c]	-35.6±0.4
